PubChem BioAssay (NCI)
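Following 48 hours of exposure in 96-well plates, responses at five concentrations were used to interpolate endpoints linearly. The concentration for full growth arrest is given as TGI.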

What was measured:
Test in all cases: inhibition of tumour cell growth, NCI panel, 48 h
HCT-15 colon = tested on: HCT-15 colon
NCI-H23 lung = tested on: NCI-H23 lung
MDA-MB-231 breast = tested on: MDA-MB-231 breast
HOP-62 NSCLC = tested on: HOP-62 NSCLC
SW-620 colon = tested on: SW-620 colon
SK-MEL-28 melanoma = tested on: SK-MEL-28 melanoma
NCI-H226 lung = tested on: NCI-H226 lung
EKVX NSCLC = tested on: EKVX NSCLC
MDA-MB-435 = tested on: MDA-MB-435
UACC-62 melanoma = tested on: UACC-62 melanoma
CCRF-CEM leukemia = tested on: CCRF-CEM leukemia
IGROV1 ovarian = tested on: IGROV1 ovarian
KM12 colon = tested on: KM12 colon
UO-31 renal = tested on: UO-31 renal
SK-MEL-2 melanoma = tested on: SK-MEL-2 melanoma
A498 renal = tested on: A498 renal
M14 melanoma = tested on: M14 melanoma
HT29 colon = tested on: HT29 colon
DU-145 prostate = tested on: DU-145 prostate
HL-60(TB) leukemia = tested on: HL-60(TB) leukemia
TK-10 renal = tested on: TK-10 renal
PC-3 prostate = tested on: PC-3 prostate
HCT-116 colon = tested on: HCT-116 colon
COLO 205 colon = tested on: COLO 205 colon
MALME-3M melanoma = tested on: MALME-3M melanoma
MCF7 breast = tested on: MCF7 breast
OVCAR-4 ovarian = tested on: OVCAR-4 ovarian
NCI-H460 lung = tested on: NCI-H460 lung
RPMI-8226 leukemia = tested on: RPMI-8226 leukemia
ACHN renal = tested on: ACHN renal
RXF 393 renal = tested on: RXF 393 renal
HS 578T breast = tested on: HS 578T breast
SK-MEL-5 melanoma = tested on: SK-MEL-5 melanoma
SF-268 CNS = tested on: SF-268 CNS
786-0 renal = tested on: 786-0 renal
HCC-2998 colon = tested on: HCC-2998 colon
OVCAR-5 ovarian = tested on: OVCAR-5 ovarian
UACC-257 melanoma = tested on: UACC-257 melanoma
U251 CNS = tested on: U251 CNS
MOLT-4 leukemia = tested on: MOLT-4 leukemia
A549 NSCLC = tested on: A549 NSCLC
LOX IMVI melanoma = tested on: LOX IMVI melanoma
BT-549 breast = tested on: BT-549 breast
T-47D breast = tested on: T-47D breast
MDA-N = tested on: MDA-N
CAKI-1 renal = tested on: CAKI-1 renal
SF-295 CNS = tested on: SF-295 CNS
SNB-19 CNS = tested on: SNB-19 CNS
NCI-H522 lung = tested on: NCI-H522 lung
HOP-92 NSCLC = tested on: HOP-92 NSCLC
SR leukemia = tested on: SR leukemia
SK-OV-3 ovarian = tested on: SK-OV-3 ovarian
OVCAR-8 ovarian = tested on: OVCAR-8 ovarian
NCI/ADR-RES ovarian = tested on: NCI/ADR-RES ovarian
SN12C renal = tested on: SN12C renal
K-562 leukemia = tested on: K-562 leukemia
OVCAR-3 ovarian = tested on: OVCAR-3 ovarian
SF-539 CNS = tested on: SF-539 CNS

## N#Cc1c(-c2ccc(Cl)cc2Cl)nc2[nH][nH]c(=S)n2c1=O
HCT-15 colon
  TGI: > 100 µM
NCI-H23 lung
  TGI: > 100 µM
MDA-MB-231 breast
  TGI: > 100 µM
HOP-62 NSCLC
  TGI: > 100 µM
SW-620 colon
  TGI: > 100 µM
SK-MEL-28 melanoma
  TGI: > 100 µM
NCI-H226 lung
  TGI: > 100 µM
EKVX NSCLC
  TGI: > 100 µM
MDA-MB-435
  TGI: > 100 µM
UACC-62 melanoma
  TGI: > 100 µM
CCRF-CEM leukemia
  TGI: > 100 µM
IGROV1 ovarian
  TGI: > 100 µM
KM12 colon
  TGI: > 100 µM
UO-31 renal
  TGI: > 100 µM
SK-MEL-2 melanoma
  TGI: > 100 µM
A498 renal
  TGI: > 100 µM
M14 melanoma
  TGI: > 100 µM
HT29 colon
  TGI: > 100 µM
DU-145 prostate
  TGI: > 100 µM
HL-60(TB) leukemia
  TGI: > 100 µM
TK-10 renal
  TGI: > 100 µM
PC-3 prostate
  TGI: > 100 µM
HCT-116 colon
  TGI: > 100 µM
COLO 205 colon
  TGI: > 100 µM
MALME-3M melanoma
  TGI: > 100 µM
MCF7 breast
  TGI: > 100 µM
OVCAR-4 ovarian
  TGI: > 100 µM
NCI-H460 lung
  TGI: > 100 µM
RPMI-8226 leukemia
  TGI: > 100 µM
ACHN renal
  TGI: > 100 µM
RXF 393 renal
  TGI: > 100 µM
HS 578T breast
  TGI: > 100 µM
SK-MEL-5 melanoma
  TGI: > 100 µM
SF-268 CNS
  TGI: > 100 µM
786-0 renal
  TGI: > 100 µM
HCC-2998 colon
  TGI: > 100 µM
OVCAR-5 ovarian
  TGI: > 100 µM
UACC-257 melanoma
  TGI: > 100 µM
U251 CNS
  TGI: > 100 µM
MOLT-4 leukemia
  TGI: > 100 µM
A549 NSCLC
  TGI: > 100 µM
LOX IMVI melanoma
  TGI: > 100 µM
BT-549 breast
  TGI: > 100 µM
T-47D breast
  TGI: > 100 µM
MDA-N
  TGI: > 100 µM
CAKI-1 renal
  TGI: > 100 µM
SF-295 CNS
  TGI: > 100 µM
SNB-19 CNS
  TGI: > 100 µM
NCI-H522 lung
  TGI: > 100 µM
HOP-92 NSCLC
  TGI: > 100 µM
SR leukemia
  TGI: > 100 µM
SK-OV-3 ovarian
  TGI: > 100 µM
OVCAR-8 ovarian
  TGI: > 100 µM
NCI/ADR-RES ovarian
  TGI: > 100 µM
SN12C renal
  TGI: > 100 µM

## CC(=O)c1c(C)n([O-])c2cc(Cl)c(Cl)cc2[n+]1=O
HCT-15 colon
  TGI: > 100 µM
NCI-H23 lung
  TGI: > 100 µM
MDA-MB-231 breast
  TGI: 62.7 µM
HOP-62 NSCLC
  TGI: > 100 µM
SW-620 colon
  TGI: > 100 µM
SK-MEL-28 melanoma
  TGI: > 100 µM
EKVX NSCLC
  TGI: > 100 µM
MDA-MB-435
  TGI: 69.7 µM
UACC-62 melanoma
  TGI: 50 µM
CCRF-CEM leukemia
  TGI: 61.5 µM
IGROV1 ovarian
  TGI: 24.4 µM
KM12 colon
  TGI: 33.5 µM
UO-31 renal
  TGI: 32.9 µM
SK-MEL-2 melanoma
  TGI: > 100 µM
A498 renal
  TGI: 70.4 µM
M14 melanoma
  TGI: > 100 µM
HT29 colon
  TGI: 90.9 µM
DU-145 prostate
  TGI: > 100 µM
HL-60(TB) leukemia
  TGI: 39.6 µM
TK-10 renal
  TGI: 71.3 µM
PC-3 prostate
  TGI: > 100 µM
HCT-116 colon
  TGI: > 100 µM
COLO 205 colon
  TGI: 30.1 µM
MALME-3M melanoma
  TGI: 26.4 µM
MCF7 breast
  TGI: > 100 µM
OVCAR-4 ovarian
  TGI: 63.8 µM
NCI-H460 lung
  TGI: 56 µM
RPMI-8226 leukemia
  TGI: 25.4 µM
ACHN renal
  TGI: 67.7 µM
RXF 393 renal
  TGI: > 100 µM
HS 578T breast
  TGI: 74 µM
SK-MEL-5 melanoma
  TGI: 26.4 µM
SF-268 CNS
  TGI: > 100 µM
K-562 leukemia
  TGI: 95.4 µM
786-0 renal
  TGI: > 100 µM
HCC-2998 colon
  TGI: 57.8 µM
OVCAR-5 ovarian
  TGI: > 100 µM
UACC-257 melanoma
  TGI: 57.4 µM
U251 CNS
  TGI: > 100 µM
MOLT-4 leukemia
  TGI: > 100 µM
A549 NSCLC
  TGI: 56.2 µM
LOX IMVI melanoma
  TGI: 46.4 µM
BT-549 breast
  TGI: > 100 µM
T-47D breast
  TGI: > 100 µM
MDA-N
  TGI: > 100 µM
CAKI-1 renal
  TGI: 58.1 µM
SF-295 CNS
  TGI: > 100 µM
SNB-19 CNS
  TGI: > 100 µM
NCI-H522 lung
  TGI: 27.9 µM
SR leukemia
  TGI: 62.2 µM
OVCAR-3 ovarian
  TGI: 88.5 µM
SF-539 CNS
  TGI: 72.5 µM
SK-OV-3 ovarian
  TGI: 54.4 µM
OVCAR-8 ovarian
  TGI: 89.9 µM
NCI/ADR-RES ovarian
  TGI: 75.1 µM
SN12C renal
  TGI: 86.2 µM
